In US20040186104A1, “Novel pyridinone and related heterocyclic derivatives” (priority 2001, published 2004):

Legend:
[1] = molecular target: T1, human kappa opioid receptor (Homo sapiens, UniProt P41145); assay: SPA binding assay for kappa-opioid receptor transfected cell membrane in 96-well format; settings: HEK293S KOR cell membranes, radioligand 125I-(D-Pro10)-Dynorphin A (1-11), control inhibitor
T1 construct: expressed in transfected cells; host or cells: HEK293S KOR cells (membrane preparations)
Source text: (§1) Compounds of the invention, prepared using the general methods described above, may be tested for their ability to bind to the human kappa opioid receptor using standard procedures well known to those skilled in the art.
SPA Binding Assay for Kappa-Opioid Receptor Transfected Cell Membrane in 96-Well Format
Principle: Membranes containing the kappa opioid receptor are coupled to SPA beads, the ability of tested compounds to dislocate a radio ligand the protein agonist Dynorphin. (^125I-(D-Pro^10)-Dynorphin A (1-11)) are determined. Only radioaktivity in close proximity to the beads, that is bound to membranes attached to beads, will be measured.
Procedure: The total and non-specific binding are determined in absence and presence of 0.5 μM of Dynorphin, radioligand is added containing 15 000-20 000 CPM per well.
The membrane and SPA beads precouples over night (18-22 hours) in assay buffer at room temperature on a shaking platform, with rotary movement. The mixture of membrane and beads are pipetted together with the assay-buffer, agents and the radioligand into a 96-well microtiterplate.
The plate is incubated for 1 hours at room temperature, and counted in a WALLAC TRILUX MicroBeta.
Percentage inhibition is calculated for each well from the two standards, 0% and 100% inhibition.
The binding buffer, 50 mM Tris, 3 mM MgCl2, stored at +4° C. […]

[2] = molecular target: T1, human kappa opioid receptor; assay: Binding assay for opioid receptor transfected cell membrane in 96-well format (filtration), kappa opioid receptor; settings: HEK293S KOR cell membranes, radioligand 125I-(D-Pro10)-Dynorphin A (1-11), control inhibitor
Source text: as §1
Binding Assay for Opioid Receptor Transfected Cell Membrane in 96-Well Format
Principle: The procedures describe how to perform and interpret receptor binding experiments designed to determine the affinities of new compounds for μ, δ and κ receptors. The total and nonspecific binding are determined in the absence and presence of selective opioid receptor radiolabeled ligand.
Procedure for Kappa Opioid Receptor:
The total and non-specific binding are determined in absence and presence of 1 μM of Asimadoline and added with the multichannel pipett in respectively well of the 96 well plate (see table 1).
The radioligand 125I-(D-pro)-Dynorphin A (1-1 1) is added containing 30 000-50 000 CPM per well.
Membranes are thawed at room temperature and diluted in assay buffer to the appropriate amount of protein, homogenized 5-10 times in glas/glas, and added to the 96 well plate.
Vortex the plate 1 minute, incubate at room temperature for 60-75 minutes, vortex 1 minute and the reaction was terminated by rapid filtration (Micro96 Harvester, Skatron Instruments, Norway) to separate bound from free ligand. […]

T1 sequence (P41145 whole entry): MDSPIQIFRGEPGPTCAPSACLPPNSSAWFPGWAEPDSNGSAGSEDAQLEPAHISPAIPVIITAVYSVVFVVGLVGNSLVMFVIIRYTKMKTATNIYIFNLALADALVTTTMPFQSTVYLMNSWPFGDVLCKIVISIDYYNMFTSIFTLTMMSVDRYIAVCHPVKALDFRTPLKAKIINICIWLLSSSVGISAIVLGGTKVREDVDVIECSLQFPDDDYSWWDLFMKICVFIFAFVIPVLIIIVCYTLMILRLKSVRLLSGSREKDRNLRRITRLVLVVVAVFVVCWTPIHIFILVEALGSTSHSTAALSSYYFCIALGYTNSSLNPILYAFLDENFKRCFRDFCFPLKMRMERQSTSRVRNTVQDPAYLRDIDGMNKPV

For CN(C(=O)C(c1ccccc1)c1ccccc1)[C@H](CN1CC[C@H](O)C1)c1ccccc1 [Asimadoline], the IC50 [1] was ~4 nM and the IC50 [2] was 4 to 10 nM.
